Each structure is given as a SMILES string.

Assay [1] deals with Wnt pathway (Sp5-Luc reporter, SW480 cells). Kind of assay: Sp5-Luc reporter gene screening assay for Wnt activity in SW480 colon carcinoma cells. In kind it is cell-based. Particulars: Homo sapiens. The essentials:
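IC50 values come from variable-slope four-parameter fits of luciferase signal normalized to DMSO wells. Stable Sp5-Luc reporter SW480 colon carcinoma cells were exposed to compounds in a 3-fold dilution series (source plates from 10 mM stock) for forty-two hours at 37 °C.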
On the technique in general: In a reporter assay the amount or activity of a reporter protein is the signal.

The test system of a further assay is LL29 cells. Nature of the assay: Inhibition of the fibrotic process (αSMA staining) in TGF-β1 treated primary human fibroblasts from IPF patients. In kind it is cell-based. Particulars: Fibroblast, 96 h, TGF-β1 20 ng/mL, 4 days, dose-response 10 μM to 1.87 nM, read-out: Inhibition of fibrosis EC50. In a few lines:
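LL29 IPF lung fibroblasts in 1% FBS were stimulated with TGF-β1 (20 ng/mL) and treated 4 days at 37 °C with compound (11 points, 10 μM–1.87 nM, 0.1% DMSO). The % αSMA-positive cells, imaged after excluding SYTOX-positive dead cells, was normalized to TGF-β1/DMSO wells. EC50 came from nonlinear regression over triplicates.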

For `CC(=O)c1ccc(-c2nccc3[nH]c(-c4n[nH]c5cnc(-c6cncc(NC(=O)CC(C)(C)C)c6)cc45)nc23)s1` [Compound 406, N-(5-(3-(4-(5-Acetylthiophen-2-yl)-1H-imidazo[4,5-c]pyridin-2-yl)-1H-pyrazolo[3,4-c]pyridin-5-yl)pyridin-3-yl)-3,3-dimethylbutanamide], the midpoint of inhibition in assay [1], the IC50, lay at 1920 nM. In the assay on LL29 cells, the half-maximal effective concentration (EC50) was at least 9990 nM.

In assay [1], `CC(=O)c1ccc(-c2nccc3[nH]c(-c4n[nH]c5cnc(-c6cncc(NC(=O)C7CCCCC7)c6)cc45)nc23)s1` [Compound 412, N-(5-(3-(4-(5-Acetylthiophen-2-yl)-1H-imidazo[4,5-c]pyridin-2-yl)-1H-pyrazolo[3,4-c]pyridin-5-yl)pyridin-3-yl)cyclohexanecarboxamide] came in with an IC50 above 10000 nM. Moreover, the EC50 in the assay on LL29 cells was at most 9 nM.

As for `CS(=O)(=O)NCc1cc(F)cc(-c2nccc3[nH]c(-c4n[nH]c5cnc(-c6cncc(NC(=O)c7ccccc7)c6)cc45)nc23)c1` [Compound 427, N-(5-(3-(4-(3-Fluoro-5-(methylsulfonamidomethyl)phenyl)-1H-imidazo[4,5-c]pyridin-2-yl)-1H-pyrazolo[3,4-c]pyridin-5-yl)pyridin-3-yl)benzamide], the IC50 in assay [1] was above 10000 nM. Also, the EC50 with LL29 cells is at least 9990 nM.

Take `CCCC(=O)Nc1cncc(-c2cc3c(-c4nc5c(-c6cc(F)cc(CNS(C)(=O)=O)c6)nccc5[nH]4)n[nH]c3cn2)c1` [Compound 433, N-(5-(3-(4-(3-Fluoro-5-(methylsulfonamidomethyl)phenyl)-1H-imidazo[4,5-c]pyridin-2-yl)-1H-pyrazolo[3,4-c]pyridin-5-yl)pyridin-3-yl)butyramide]: the IC50 in assay [1] is above 10000 nM. The EC50 with LL29 cells worked out at 195 nM.

The molecule `CS(=O)(=O)NCc1cc(F)cc(-c2nccc3[nH]c(-c4n[nH]c5cnc(-c6cncc(CNCc7ccccc7)c6)cc45)nc23)c1` [Compound 439, N-(3-(2-(5-(5-((Benzylamino)methyl)pyridin-3-yl)-1H-pyrazolo[3,4-c]pyridin-3-yl)-1H-imidazo[4,5-c]pyridin-4-yl)-5-fluorobenzyl)methanesulfonamide] yielded an IC50 in assay [1] of 67.3 nM. The EC50 in the assay on LL29 cells was at most 9 nM.

Turning to `CS(=O)(=O)NCc1cc(F)cc(-c2nccc3[nH]c(-c4n[nH]c5cnc(-c6cncnc6)cc45)nc23)c1` [Compound 442, N-(3-Fluoro-5-(2-(5-(pyrimidin-5-yl)-1H-pyrazolo[3,4-c]pyridin-3-yl)-1H-imidazo[4,5-c]pyridin-4-yl)benzyl)methanesulfonamide], in assay [1], the IC50 amounted to 30.8 nM. Also, in the assay on LL29 cells, the EC50 was at most 9 nM.

As for `CCNCc1cncc(-c2cc3c(-c4nc5c(-c6cc(F)cc(NCCN(C)C)c6)nccc5[nH]4)n[nH]c3cn2)c1` [Compound 448, N^1-(3-(2-(5-(5-((Ethylamino)methyl)pyridin-3-yl)-1H-pyrazolo[3,4-c]pyridin-3-yl)-1H-imidazo[4,5-c]pyridin-4-yl)-5-fluorophenyl)-N2,N2-dimethylethane-1,2-diamine], half-maximal inhibition in assay [1] (IC50) was put at 394 nM. For the same molecule, the EC50 in the assay with LL29 cells was at least 9990 nM.

Molecule `CC(C)Nc1cncc(-c2cc3c(-c4nc5c(-c6cc(F)cc(NCCN(C)C)c6)nccc5[nH]4)n[nH]c3cn2)c1` [Compound 454, N^1-(3-Fluoro-5-(2-(5-(5-(isopropylamino)pyridin-3-yl)-1H-pyrazolo[3,4-c]pyridin-3-yl)-1H-imidazo[4,5-c]pyridin-4-yl)phenyl)-N2,N2-dimethylethane-1,2-diamine] showed an IC50 in assay [1] of 266 nM. Moreover, the EC50 with LL29 cells was 1620 nM.

In assay [1], `CCCCC(=O)Nc1cncc(-c2cc3c(-c4nc5c(-c6cc(F)cc(NCCN(C)C)c6)nccc5[nH]4)n[nH]c3cn2)c1` [Compound 460, N-(5-(3-(4-(3-((2-(Dimethylamino)ethyl)amino)-5-fluorophenyl)-1H-imidazo[4,5-c]pyridin-2-yl)-1H-pyrazolo[3,4-c]pyridin-5-yl)pyridin-3-yl)pentanamide] gave an IC50 of 203 nM. Also, in the assay on LL29 cells, the concentration for a half-maximal effect (EC50) was at least 9990 nM.

For the molecule `CN(C)CCNc1cc(F)cc(-c2nccc3[nH]c(-c4n[nH]c5cnc(-c6cncc(CNCC7CCCC7)c6)cc45)nc23)c1` [Compound 466, N^1-(3-(2-(5-(5-(((Cyclopentylmethyl)amino)methyl)pyridin-3-yl)-1H-pyrazolo[3,4-c]pyridin-3-yl)-1H-imidazo[4,5-c]pyridin-4-yl)-5-fluorophenyl)-N2,N2-dimethylethane-1,2-diamine], the half-inhibitory concentration (IC50) in assay [1] turned out to be 342 nM. Also, the EC50 in the assay with LL29 cells was determined as 74 nM.

Consider `Fc1cccc(-c2nccc3[nH]c(-c4n[nH]c5cnc(C6CCNCC6)cc45)nc23)c1` [Compound 937, 3-(4-(3-Fluorophenyl)-1H-imidazo[4,5-c]pyridin-2-yl)-5-(piperidin-4-yl)-1H-pyrazolo[3,4-c]pyridine], for which, in assay [1], the concentration for half-maximal inhibition (IC50) was above 10000 nM. For the same molecule, the EC50 in the assay with LL29 cells came to 2610 nM.

For `Fc1cccc(-c2nccc3[nH]c(-c4n[nH]c5cnc(C6=CCNCC6)cc45)nc23)c1` [Compound 938, 3-(4-(3-Fluorophenyl)-1H-imidazo[4,5-c]pyridin-2-yl)-5-(1,2,3,6-tetrahydropyridin-4-yl)-1H-pyrazolo[3,4-c]pyridine], in assay [1], inhibition was half-maximal at 125 nM (IC50). Further, in the assay with LL29 cells, the EC50 is 198 nM.

Consider `Fc1cccc(-c2nccc3[nH]c(-c4n[nH]c5cnc(-c6cn[nH]c6)cc45)nc23)c1` [Compound 939, 3-(4-(3-Fluorophenyl)-1H-imidazo[4,5-c]pyridin-2-yl)-5-(1H-pyrazol-4-yl)-1H-pyrazolo[3,4-c]pyridine], for which the IC50 in assay [1] was 1 nM. In addition, the EC50 in the assay on LL29 cells was at most 9 nM.

In assay [1], `Cc1ncc(-c2cc3c(-c4nc5c(-c6cccc(F)c6)nccc5[nH]4)n[nH]c3cn2)n1C` [Compound 941, 5-(1,2-Dimethyl-1H-imidazol-5-yl)-3-(4-(3-fluorophenyl)-1H-imidazo[4,5-c]pyridin-2-yl)-1H-pyrazolo[3,4-c]pyridine] showed an IC50 of 1010 nM. Also, the EC50 in the assay on LL29 cells stood at 76 nM.

Regarding `O=C(CC1CCNCC1)Nc1cncc(-c2cc3c(-c4nc5c(-c6cccc(F)c6)nccc5[nH]4)n[nH]c3cn2)c1` [Compound 945, N-(5-(3-(4-(3-Fluorophenyl)-1H-imidazo[4,5-c]pyridin-2-yl)-1H-pyrazolo [3,4-c]pyridin-5-yl)pyridin-3-yl)-2-(piperidin-4-yl)acetamide], the IC50 in assay [1] was above 10000 nM. For the same molecule, in the assay with LL29 cells, the EC50 stood at 60 nM.

Molecule `Oc1cncc(-c2cc3c(-c4nc5c(-c6cccc(F)c6)nccc5[nH]4)n[nH]c3cn2)c1` [Compound 949, 5-(3-(4-(3-Fluorophenyl)-1H-imidazo[4,5-c]pyridin-2-yl)-1H-pyrazolo[3,4-c]pyridin-5-yl)pyridin-3-ol] had an IC50 in assay [1] of 28 nM. Moreover, in the assay with LL29 cells, the EC50 is at least 9990 nM.

In turn, `Fc1cccc(-c2nccc3[nH]c(-c4n[nH]c5cnc(-c6ccccn6)cc45)nc23)c1` [Compound 953, 3-(4-(3-Fluorophenyl)-1H-imidazo[4,5-c]pyridin-2-yl)-5-(pyridin-2-yl)-1H-pyrazolo[3,4-c]pyridine] yielded an IC50 in assay [1] of 320 nM. For the same molecule, in the assay on LL29 cells, the EC50 was determined as 1940 nM.

In the case of `Fc1cccc(-c2nccc3[nH]c(-c4n[nH]c5cnc(-c6cnccn6)cc45)nc23)c1` [Compound 954, 3-(4-(3-Fluorophenyl)-1H-imidazo[4,5-c]pyridin-2-yl)-5-(pyrazin-2-yl)-1H-pyrazolo[3,4-c]pyridine], the IC50 in assay [1] was found to be 20 nM. Besides, in the assay on LL29 cells, the EC50 is at least 9990 nM.

In the case of `CC(C)CC(=O)Nc1cncc(-c2cc3c(-c4nc5c(-c6cc(O)cc(F)c6)nccc5[nH]4)n[nH]c3cn2)c1` [Compound 1350, N-(5-(3-(4-(3-Fluoro-5-hydroxyphenyl)-1H-imidazo[4,5-c]pyridin-2-yl)-1H-pyrazolo[3,4-c]pyridin-5-yl)pyridin-3-yl)-3-methylbutanamide], in assay [1], the IC50 amounted to 135 nM. Besides, in the assay with LL29 cells, the EC50 was determined as 135 nM.

With `COc1cc(F)cc(-c2nccc3[nH]c(-c4n[nH]c5cnc(-c6cncc(NC(=O)CC(C)C)c6)cc45)nc23)c1` [Compound 1394, N-(5-(3-(4-(3-Fluoro-5-methoxyphenyl)-1H-imidazo[4,5-c]pyridin-2-yl)-1H-pyrazolo[3,4-c]pyridin-5-yl)pyridin-3-yl)-3-methylbutanamide], in assay [1], the IC50 amounted to 151 nM. In the assay on LL29 cells, the EC50 is 332 nM.

The molecule `CN(C)CC(=O)Nc1cncc(-c2cc3c(-c4nc5c(-c6cccc(F)c6)nccc5[nH]4)n[nH]c3cn2)c1` [Compound 1437, 2-(Dimethylamino)-N-(5-(3-(4-(3-fluorophenyl)-1H-imidazo[4,5-c]pyridin-2-yl)-1H-pyrazolo[3,4-c]pyridin-5-yl)pyridin-3-yl)acetamide] showed an IC50 in assay [1] of 38 nM. Also, the EC50 with LL29 cells came out at 342 nM.

By IC50 is commonly meant the concentration that gives 50% inhibition. Higher therefore signals weaker potency in that assay. The term EC50 denotes the concentration giving half of the maximal effect.

The values above are taken from US9844536B2, “3-(1H-imidazo[4,5-C]pyridin-2-yl)-1H-pyrazolo[3,4-C]pyridine and therapeutic uses thereof” (Samumed, LLC, priority 2014, dated 2017).
